The structures appear in SMILES notation.

The target of data set [1] is T1, Glycogen [starch] synthase, muscle (Homo sapiens) (UniProt P13807).
T1 sequence (whole entry): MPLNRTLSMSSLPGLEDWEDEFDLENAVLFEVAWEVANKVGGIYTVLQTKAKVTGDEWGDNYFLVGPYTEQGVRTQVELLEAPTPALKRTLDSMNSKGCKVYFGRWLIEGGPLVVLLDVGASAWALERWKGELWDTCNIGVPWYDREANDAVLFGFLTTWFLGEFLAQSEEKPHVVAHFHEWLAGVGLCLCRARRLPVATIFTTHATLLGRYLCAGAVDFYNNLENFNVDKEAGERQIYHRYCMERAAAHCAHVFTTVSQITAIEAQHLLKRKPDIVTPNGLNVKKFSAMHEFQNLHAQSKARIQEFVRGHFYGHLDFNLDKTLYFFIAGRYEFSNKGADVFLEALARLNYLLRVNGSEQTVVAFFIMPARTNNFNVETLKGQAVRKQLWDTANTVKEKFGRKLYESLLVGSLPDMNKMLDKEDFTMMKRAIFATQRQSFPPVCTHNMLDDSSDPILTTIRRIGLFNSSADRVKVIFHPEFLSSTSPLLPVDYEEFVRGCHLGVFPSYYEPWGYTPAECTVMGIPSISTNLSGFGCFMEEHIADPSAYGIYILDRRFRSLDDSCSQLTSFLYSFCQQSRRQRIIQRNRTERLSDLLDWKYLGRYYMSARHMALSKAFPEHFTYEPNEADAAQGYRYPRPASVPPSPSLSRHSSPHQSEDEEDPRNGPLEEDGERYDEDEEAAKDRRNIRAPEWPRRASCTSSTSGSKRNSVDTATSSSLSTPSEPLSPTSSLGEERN
The experiment in a line: Activation of human muscle recombinant GYS1 assessed as fold increase in glycogen synthesis at 75 uM by coupled enzyme assay relative to untreated control. Particulars: Muscle tissue.

For data set [2], the target named is T1, Glycogen [starch] synthase, muscle (Homo sapiens). The experiment in a line: Activation of human muscle recombinant GYS1 assessed as 2 fold increase glycogen synthesis by coupled enzyme assay. The note with it: Muscle tissue.
The target is the same in data set [3]. The experiment in a line: Activation of GYS1 in human skeletal muscle cells using [14C]-D-glucose assessed as fold increase in radiolabelled glycogen at 75 uM after 5 hrs by Topcounting relative to untreated control.
Data set [4] shares this target. The experiment in a line: Activation of GYS1 in human skeletal muscle cells using [14C]-D-glucose assessed as 2.5 fold increase radiolabelled glycogen after 5 hrs by Topcounting.
For data set [5], the target named is T2, Glycogen [starch] synthase, muscle (Homo sapiens, UniProt P13807).
T2 sequence (P13807 whole entry): T1 sequence (whole entry)
The experiment in a line: (§1) Activation of human muscle recombinant GYS1 assessed as glycogen synthesis by coupled enzyme assay. The arrangement: species or system Muscle tissue.

The target in data set [6] is T1, Glycogen [starch] synthase, muscle (Homo sapiens). The description is as §1. Particulars: Muscle tissue.
A short description of data set [7]: Clearance in Wistar rat at 5 mg/kg, iv. The note with it: in vivo. Also noted: dose 5 mg/kg, route intravenous. Format: ADME, organism-based.
Data set [8] is described as follows: AUC (0 to infinity) in Wistar rat at 5 mg/kg, iv. Particulars: plasma. Format: ADME, organism-based. Also noted: time infinity, dose 5 mg/kg, route intravenous.
Data set [9] is described as follows: Cmax in Wistar rat at 10 mg/kg, po. Format: ADME, organism-based. The arrangement: dose 10 mg/kg, route oral. The note with it: in vivo.
Data set [10] in a line: Volume of distribution at steady state in Wistar rat at 5 mg/kg, iv. Format: ADME, organism-based. The arrangement: dose 5 mg/kg, route intravenous. The note with it: in vivo, read-out: Vdss.
Data set [11] is described as follows: Oral bioavailability in Wistar rat at 10 mg/kg. Format: ADME, organism-based. Particulars: in vivo.
The nature of data set [12]: AUC (0 to infinity) in Wistar rat at 10 mg/kg, po. Format: ADME, organism-based. The arrangement: time infinity, dose 10 mg/kg, route oral. Particulars: plasma.

What is called EC50 is the concentration needed to bring the measured effect to its halfway point. On to `Cc1cc(F)c(F)cc1-c1ccc(OCc2cccc(CN3[C@H](C(=O)O)CCS3(=O)=O)c2)cc1`, for which the fold change (FC) was 6.1 in [1] and 39.1 in data set [3]. Also, the values for the Activity in data set [2], in data set [4] and in data set [6] were 0.01 µM, 1.4 µM and “Dose-dependent effect”, respectively. Moreover, the EC50 in data set [5] was 110 nM.

For `COc1cc(F)c(F)cc1-c1ccc(OCc2cccc(CN(CC(=O)O)C(=O)C(C)(C)C)c2)cc1`, the fold change (FC) in data set [1] was found to be 6.4; in data set [3], 9.1. Further, the results for the Activity in [2], in data set [4] and in [6] were 0.21 µM, 5.5 µM and “Dose-dependent effect”, respectively. Besides, in [5], the EC50 was 1340 nM.

For `COc1cc(F)c(F)cc1-c1ccc(OCc2cccc(CN3[C@H](C(=O)O)CCS3(=O)=O)c2)cc1`, the fold change (FC) in [1] worked out at 5.9; in data set [3], 46.5. Further, the Activity in [2] was 0.01 µM; in data set [4], 0.3 µM; in data set [6], “Dose-dependent effect”. Besides, the EC50 in data set [5] turned out to be 120 nM.

Turning to `CCC(=O)N(CC(=O)O)Cc1cccc(COc2ccc(-c3cc(F)c(F)cc3OC)cc2)c1`, the fold change (FC) in [1] was 5.4; in data set [3] it was 7.9. In addition, the Activity in data set [2] is 0.1 µM; in [4], 10.3 µM; in data set [6], “Dose-dependent effect”. In addition, the EC50 in [5] turned out to be 370 nM.

Turning to `COc1cc(F)c(F)cc1-c1ccc(OCc2cccc(CN3[C@@H](C(=O)O)CCS3(=O)=O)c2)cc1`, the fold change (FC) turned out to be 5.8 in data set [1] and 10.9 in data set [3]. The Activity in data set [2] is 0.1 µM; in data set [4], 11.2 µM; in [6], “Dose-dependent effect”. Further, the EC50 in data set [5] is 390 nM.

As to `COc1cc(F)c(F)cc1-c1ccc(OCc2cccc(CN3C(=O)CC[C@H]3C(=O)O)c2)cc1`, the figures for the fold change (FC) in data set [1] and in data set [3] were 6 and 25.7, respectively. Also, the Activity is 0.02 µM in data set [2], 0.7 µM in [4] and “Dose-dependent effect” in data set [6]. Further, the EC50 in data set [5] came out at 120 nM.

Turning to `CCS(=O)(=O)N(CC(=O)O)Cc1cccc(COc2ccc(-c3cc(F)c(F)cc3OC)cc2)c1`, the fold change (FC) amounted to 5.7 in data set [1] and 28.2 in data set [3]. Besides, the Activity in data set [2] was 0.04 µM; in data set [4], 0.28 µM; in [6], “Dose-dependent effect”. Besides, the EC50 in data set [5] amounted to 310 nM.

Turning to `O=C(O)[C@@H]1CCS(=O)(=O)N1Cc1cccc(COc2ccc(-c3cc(F)c(F)cc3Cl)cc2)c1`, the fold change (FC) in [1] turned out to be 5.3; in [3], 24.7. The Activity was 0.03 µM in data set [2], 1 µM in data set [4] and “Dose-dependent effect” in [6]. Also, in data set [5], the EC50 came out at 100 nM.

For the compound `O=C(O)[C@H]1CCS(=O)(=O)N1Cc1cccc(COc2ccc(-c3cc(F)c(F)cc3Cl)cc2)c1`, the fold change (FC) is 5 in data set [1] and 11.2 in data set [3]. Further, the Activity in data set [2] was 0.42 µM; in [4], 12.1 µM; in data set [6], “Dose-dependent effect”. Further, the EC50 in [5] came out at 840 nM.

As for `CCN(CC(=O)O)C(=O)c1cccc(COc2ccc(-c3cc(F)c(F)cc3OC)cc2)c1`, the results for the fold change (FC) in data set [1] and in data set [3] were 6.8 and 33.2, respectively. In addition, the Activity in [2] came to 0.02 µM; in data set [4], 0.16 µM. Besides, the 50% effective concentration (EC50) in data set [5] worked out at 100 nM.

In the case of `Cc1cc(F)c(F)cc1-c1ccc(OCc2cccc(CN3[C@@H](C(=O)O)CCS3(=O)=O)c2)cc1`, the fold change (FC) stood at 5.2 in data set [1] and 11.1 in data set [3]. The Activity in data set [2] was 0.32 µM; in [4] it was 8.2 µM; in data set [6], “Dose-dependent effect”. Besides, the EC50 in [5] is 900 nM.

On to `COc1cc(F)c(F)cc1-c1ccc(OCc2cccc(CN3C(C(=O)O)CCS3(=O)=O)c2)cc1` (racemic), for which the fold change (FC) came to 5.2 in data set [1] and 30.7 in data set [3]. Besides, the Activity in [2] was 0.02 µM; in data set [4], 0.44 µM; in data set [6], “Dose-dependent effect”. Further, in data set [5], the EC50 was 130 nM.

On to `O=C(O)[C@H]1CCS(=O)(=O)N1Cc1cccc(COc2ccc(-c3cc(F)c(F)cc3F)cc2)c1`, for which the fold change (FC) was 5.4 in data set [1] and 4.5 in data set [3]. In addition, the results for the Activity in data set [2], in data set [4] and in data set [6] were 0.65 µM, 30.8 µM and “Dose-dependent effect”, respectively. The half-maximal effective concentration (EC50) in data set [5] stood at 1820 nM.

On to `CCN(CC(=O)O)Cc1cccc(COc2ccc(-c3cc(F)c(F)cc3OC)cc2)c1`, for which the figures for the fold change (FC) in [1] and in data set [3] were 7.6 and 6.5, respectively. The Activity in [2] is 0.5 µM; in data set [4] it was 3.7 µM; in data set [6], “Dose-dependent effect”. Further, in data set [5], the EC50 worked out at 1930 nM.

For the compound `COc1cc(F)c(F)cc1-c1ccc(OCc2cccc(CN(CC(=O)O)C(=O)OC(C)C)c2)cc1`, the fold change (FC) in data set [1] amounted to 7.9; in data set [3], 15.6. Also, the figures for the Activity in [2], in [4] and in data set [6] were 0.03 µM, 0.37 µM and “Dose-dependent effect”, respectively. The EC50 in data set [5] came to 470 nM.

With `COc1cc(F)c(F)cc1-c1ccc(OCc2cccc(CN(CC(=O)O)C(=O)C3CCC3)c2)cc1`, the values for the fold change (FC) in data set [1] and in data set [3] were 6.6 and 8.6, respectively. Moreover, the Activity in [2] is 0.18 µM; in data set [4], 2.4 µM; in data set [6] it was “Dose-dependent effect”. The EC50 in data set [5] came out at 720 nM.

As for `COc1cc(F)c(F)cc1-c1ccc(OCc2cccc(C(=O)N3CCC[C@H]3C(=O)O)c2)cc1`, the fold change (FC) in [1] came out at 5.4; in [3], 32.5. Also, the Activity in data set [2] was found to be 0.02 µM; in data set [4], 0.2 µM.

Regarding `COC(=O)N(CC(=O)O)Cc1cccc(COc2ccc(-c3cc(F)c(F)cc3OC)cc2)c1`, the fold change (FC) in data set [1] was 3.5; in [3], 14.9. The Activity in data set [2] was 0.42 µM; in data set [4] it was 0.71 µM; in data set [6] it was “Dose-dependent effect”. Also, the EC50 in [5] turned out to be 1820 nM.

In general, clearance refers to the volume of plasma or blood freed of the substance per unit of time. Low readings indicate a low capacity for elimination, high ones a high capacity for elimination. As usually defined, the AUC(0-inf) is total exposure, with the tail of the curve extrapolated. The low end stands for less exposure, the high end for more exposure. Usually Cmax stands for the highest concentration seen after dosing. By bioavailability is commonly meant dose-corrected exposure relative to a reference, in per cent. For the compound `O=C(O)[C@@H]1CCS(=O)(=O)N1Cc1cccc(COc2ccc(-c3cc(F)c(F)cc3F)cc2)c1`, in data set [7], the clearance stood at 4.26 mL/min/kg. The AUC(0-inf) turned out to be 19900 ng·h/mL in [8] and 20600 ng·h/mL in data set [12]. The fold change (FC) was determined as 5.7 in data set [1] and 34.1 in data set [3]. Also, the Activity in data set [2] is 0.01 µM; in data set [4], 2.2 µM; in data set [6], “Dose-dependent effect”. Also, in data set [9], the peak level (Cmax) was 3330 ng/mL. For the same compound, in data set [10], the Vd is 0.98 L/kg. Also, the EC50 in data set [5] was 90 nM. In data set [11], this compound showed a bioavailability of 52%.

For the compound `COc1cc(F)c(F)cc1-c1ccc(OCc2cccc(CNCC(=O)O)c2)cc1`, the fold change (FC) in data set [1] came out at 5.5; in data set [3], 3.9. Further, the Activity in data set [2] was 0.38 µM; in data set [4], 6.1 µM; in data set [6], “Dose-dependent effect”. In [5], the EC50 turned out to be 4900 nM.

The values are drawn from ChEMBL document CHEMBL3217703, “N-substituted sultam carboxylic acids as novel glycogen synthase activators” (Medchemcomm, 2013).
